Experimental data: publication PMC8134453
“Also recorded” adds a separate entry of the source. Like-named read-outs stand apart in the source and are kept apart here.

Experiments:
Jack bean (JB) urease [1] = biological target: T1, Jack bean (JB) urease (Canavalia ensiformis, UniProt P07374); experiment: Urease inhibition, modified Berthelot spectrophotometric method; assay type: biochemical
T1 construct: purchased Sigma-Aldrich (USA)
Procedure: All used material and JB urease (EC 3.5.1.5) were purchased from Sigma–Aldrich (USA). Potassium phosphate buffer (PPB) solution with concentration 100 mM and pH = 7.4 was prepared in distilled water. […] The enzymatic reactions were performed in PPB solution which reach to the 985 μL by adding urea (850 μL) and the synthesized compound (100 μL, 0–10 mg/mL). Then, urease (15 μL) was added and the concentration of liberated ammonia was measured after 60 min. The corresponding concentration of ammonia was determined by addition of the incubated solution (100 μL) to the mixture of 500 μL of solution I (5.0 g phenol and 25.0 mg sodium nitroprusside in 500 mL water) and 500 μL of solution II (2.5 g sodium hydroxide and 4.2 mL sodium hypochlorite (5% chlorine) in 500 mL water) which was incubated at 37 °C for 30 min. The absorbance was obtained by measuring indophenols. The activity of uninhibited JB urease was considered as the control activity of 100%. The inhibition assays were conducted according to this formula: I (%) = [1 − (T/C)] × 100; where I (%) is the enzyme inhibition, T (test) is the absorbance of the analyzed compounds in the presence of urease solution, and C (control) is the absorbance of the solvent in the presence of urease solution. Data were expressed as mean ± […] and run in triplicate. […] Thiourea and hydroxyurea were used as the standard inhibitors for urease.

[2] = no reference given; cited from earlier work
Jack bean (JB) urease [3] = biological target: T1, Jack bean (JB) urease; experiment: Urease kinetic study (Lineweaver–Burk plots); assay type: biochemical
Procedure: The inhibition mode and Ki value were determined by Lineweaver–Burk plots and secondary re-plotting of the mentioned plots, respectively.
All used material and JB urease (EC 3.5.1.5) were purchased from Sigma–Aldrich (USA). Potassium phosphate buffer (PPB) solution with concentration 100 mM and pH = 7.4 was prepared in distilled water. […] The enzymatic reactions were performed in PPB solution which reach to the 985 μL by adding urea (850 μL) and the synthesized compound (100 μL, 0–10 mg/mL). Then, urease (15 μL) was added and the concentration of liberated ammonia was measured after 60 min. The corresponding concentration of ammonia was determined by addition of the incubated solution (100 μL) to the mixture of 500 μL of solution I (5.0 g phenol and 25.0 mg sodium nitroprusside in 500 mL water) and 500 μL of solution II (2.5 g sodium hydroxide and 4.2 mL sodium hypochlorite (5% chlorine) in 500 mL water) which was incubated at 37 °C for 30 min. The absorbance was obtained by measuring indophenols. The activity of uninhibited JB urease was considered as the control activity of 100%. The inhibition assays were conducted according to this formula: I (%) = [1 − (T/C)] × 100; where I (%) is the enzyme inhibition, T (test) is the absorbance of the analyzed compounds in the presence of urease solution, and C (control) is the absorbance of the solvent in the presence of urease solution. Data were expressed as mean ± standard error (SD) and run in triplicate. […] Thiourea and hydroxyurea were used as the standard inhibitors for urease.

[4] = Jack bean urease, mean ± standard error of the mean, at least three experiments, read-out: IC50 against urease

T1 sequence (P07374 whole entry, looked up): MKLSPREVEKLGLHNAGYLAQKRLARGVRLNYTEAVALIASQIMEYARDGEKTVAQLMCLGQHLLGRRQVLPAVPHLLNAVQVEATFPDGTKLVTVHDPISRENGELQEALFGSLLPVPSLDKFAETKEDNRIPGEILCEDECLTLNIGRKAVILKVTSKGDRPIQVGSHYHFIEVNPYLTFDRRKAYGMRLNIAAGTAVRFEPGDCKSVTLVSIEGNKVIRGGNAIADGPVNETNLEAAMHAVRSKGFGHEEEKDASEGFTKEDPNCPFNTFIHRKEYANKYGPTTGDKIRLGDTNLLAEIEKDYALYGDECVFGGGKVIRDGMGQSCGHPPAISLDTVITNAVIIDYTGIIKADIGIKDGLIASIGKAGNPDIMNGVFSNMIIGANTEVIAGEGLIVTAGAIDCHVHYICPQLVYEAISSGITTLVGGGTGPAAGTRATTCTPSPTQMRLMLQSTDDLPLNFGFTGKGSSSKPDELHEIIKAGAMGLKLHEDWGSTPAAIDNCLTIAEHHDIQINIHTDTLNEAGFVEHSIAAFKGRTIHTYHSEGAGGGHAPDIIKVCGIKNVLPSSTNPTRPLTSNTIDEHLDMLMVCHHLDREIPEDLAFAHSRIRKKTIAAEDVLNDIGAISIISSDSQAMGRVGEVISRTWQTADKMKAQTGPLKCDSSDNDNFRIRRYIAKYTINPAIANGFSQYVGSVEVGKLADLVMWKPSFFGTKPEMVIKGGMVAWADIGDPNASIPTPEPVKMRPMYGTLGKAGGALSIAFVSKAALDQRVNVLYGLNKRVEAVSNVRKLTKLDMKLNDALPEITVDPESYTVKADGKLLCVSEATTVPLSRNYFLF

| SMILES | IC50 (Jack bean (JB) urease [1]; [4]) [nM] | also measured |
| --- | --- | --- |
| CN1C(=O)C(=CN/N=C/c2cc(Cl)ccc2[N+](=O)[O-])C(=O)N(C)C1=O [Compound 7l, (E)-5-((2-(5-chloro-2-nitrobenzylidene)hydrazinyl)methylene)-1,3-dimethylpyrimidine-2,4,6(1H,3H,5H)-trione] | 1340 ± 120 |  |
| COc1cc(/C=N/NC=C2C(=O)N(C)C(=O)N(C)C2=O)cc(OC)c1OC [Compound 7d, (E)-1,3-dimethyl-5-((2-(3,4,5-trimethoxybenzylidene)hydrazinyl)methylene)pyrimidine-2,4,6(1H,3H,5H)-trione] | 2530 ± 110 |  |
| CN1C(=O)C(=CN/N=C/c2cccc(Oc3ccccc3)c2)C(=O)N(C)C1=O [Compound 7e, (E)-1,3-dimethyl-5-((2-(3-phenoxybenzylidene)hydrazinyl)methylene)pyrimidine-2,4,6(1H,3H,5H)-trione] | 2850 ± 230 |  |
| CN1C(=O)C(=CN/N=C/c2ccccc2O)C(=O)N(C)C1=O [Compound 7b, (E)-5-((2-(2-hydroxybenzylidene)hydrazinyl)methylene)-1,3-dimethylpyrimidine-2,4,6(1H,3H,5H)-trione] | 3090 ± 130 |  |
| CN1C(=O)C(=CN/N=C/c2ccccc2)C(=O)N(C)C1=O [Compound 7a, (E)-5-((2-benzylidenehydrazinyl)methylene)-1,3-dimethylpyrimidine-2,4,6(1H,3H,5H)-trione] | 4430 ± 210 |  |
| CN1C(=O)C(=CN/N=C/c2cc([N+](=O)[O-])ccc2Cl)C(=O)N(C)C1=O [Compound 7k, (E)-5-((2-(2-chloro-5-nitrobenzylidene)hydrazinyl)methylene)-1,3-dimethylpyrimidine 2,4,6(1H,3H,5H)-trione] | 3940 ± 250 |  |
| CN1C(=O)C(=CN/N=C/c2ccc(Cl)s2)C(=O)N(C)C1=O [Compound 7n, (E)-5-((2-((5-chlorothiophen-2-yl)methylene)hydrazinyl)methylene)-1,3-dimethylpyrimidine-2,4,6(1H,3H,5H)-trione] | 4560 ± 180 |  |
| CN1C(=O)C(=CN/N=C/c2ccc(Cl)cc2)C(=O)N(C)C1=O [Compound 7f, (E)-5-((2-(4-chlorobenzylidene)hydrazinyl)methylene)-1,3-dimethylpyrimidine-2,4,6(1H,3H,5H)-trione] | 3560 ± 160 |  |
| CN1C(=O)C(=CN/N=C/c2ccc([N+](=O)[O-])cc2)C(=O)N(C)C1=O [Compound 7i, (E)-1,3-dimethyl-5-((2-(4-nitrobenzylidene)hydrazinyl)methylene)pyrimidine-2,4,6(1H,3H,5H)-trione] | 1310 ± 90 | decrease of inhibitory activity relative to 2-nitro derivative 7h (Jack bean (JB) urease [1]; urease IC50 compared with 7h): about two |
| NC(N)=S [Thiourea, reference compound] | 23000 ± 1700 |  |
| NC(=O)NO [Hydroxyurea, reference compound] | 100000 ± 150 | experimental solubility [2]: 100 mg/mL |
| CN1C(=O)C(=CN/N=C/c2cccc(Cl)c2Cl)C(=O)N(C)C1=O [Compound 7j, (E)-5-((2-(2,3-dichlorobenzylidene)hydrazinyl)methylene)-1,3-dimethylpyrimidine-2,4,6(1H,3H,5H)-trione] | 4520 ± 310 |  |
| CN1C(=O)C(=CN/N=C/c2cccs2)C(=O)N(C)C1=O [Compound 7m, (E)-1,3-dimethyl-5-((2-(thiophen-2-ylmethylene)hydrazinyl)methylene)pyrimidine2,4,6(1H,3H,5H)-trione] | 860 ± 80 |  |
| CN1C(=O)C(=CN/N=C/c2ccccc2[N+](=O)[O-])C(=O)N(C)C1=O [Compound 7h, (E)-1,3-dimethyl-5-((2-(2-nitrobenzylidene)hydrazinyl)methylene)pyrimidine-2,4,6(1H,3H,5H)-trione] |  | Ki (Jack bean (JB) urease [3]): 820 nM; inhibition mode (Jack bean (JB) urease [3]; Lineweaver–Burk plot): mixed-type inhibitor; also recorded: mix-mode inhibitor; melting point: 178 to 180 °C; IC50 (Jack bean (JB) urease [1]): 610 ± 60 nM; activity fold superior to parent phenyl derivative 7a (Jack bean (JB) urease [1]; ratio of urease IC50 values): 7.2 fold; times more potent than thiourea (Jack bean (JB) urease [1]; ratio of urease IC50 values): 37.7 times |
| CN1C(=O)C(=CN/N=C/c2cccc3ccccc23)C(=O)N(C)C1=O [Compound 7o, (E)-1,3-dimethyl-5-((2-(naphthalen-1-ylmethylene)hydrazinyl)methylene)pyrimidine-2,4,6(1H,3H,5H)-trione] |  | IC50 (Jack bean (JB) urease [1]): 1940 ± 220 nM |
| CN1C(=O)C(=CN/N=C/c2cccc(Br)c2)C(=O)N(C)C1=O [Compound 7g, (E)-5-((2-(3-bromobenzylidene)hydrazinyl)methylene)-1,3-dimethylpyrimidine-2,4,6(1H,3H,5H)-trione] | 3620 ± 190 |  |
| CN1C(=O)C(=CN/N=C/c2ccc(O)cc2O)C(=O)N(C)C1=O [Compound 7c, (E)-5-((2-(2,4-dihydroxybenzylidene)hydrazinyl)methylene)-1,3-dimethylpyrimidine-2,4,6(1H,3H,5H)-trione] | 1200 ± 50 |  |
